Experimental data as given in paper PMC12557367, ““Precision on Two Wheels”–Structural Refinement of ^64Cu- and ^68Ga-Labeled Bicyclic Peptides Targeting Nectin‑4 for Improved Tumor Imaging: From Preclinical Development to First-in-Human Application” (Journal of Medicinal Chemistry, 2025).
Numbered stars: 1 amine (or outer) side, 2 acyl side, 3 side chain; on linkers, the order of the positions; unused ones are H or OH. Bridge positions count the residues as written; N and C are the ends. Square brackets hold non-standard residues; d marks the D form. Peptide text beside a SMILES is read from it. * marks the point of attachment. DOTA = O=C(O)CN1CCN(CC(=O)O)CCN(CC(=O)*)CCN(CC(=O)O)CC1; TATA = O=C(CC[*:1])N1CN(C(=O)CC[*:2])CN(C(=O)CC[*:3])C1; X1 = O=C(O)CN1CCN(CC(=O)O)CCN([C@H](CCC(=O)*)C(=O)O)CC1; 1Nal = N[C@@H](Cc1cccc2ccccc12)C(=O)O; 2Nal = N[C@@H](Cc1ccc2ccccc2c1)C(=O)O; Hyp = O=C(O)[C@@H]1C[C@@H](O)CN1; hArg = N=C(N)NCCCC[C@H](N)C(=O)O; hSer = N[C@@H](CCO)C(=O)O; Nle = CCCC[C@H](N)C(=O)O

Key:
[1] = target: T1, recombinant N-terminal Ig-like V domain of nectin-4 (Homo sapiens, UniProt Q96NY8); test: FA direct binding of probe 1a to Ig-like V domain
T1 construct: probe 1a to the N-terminal Ig-like V domain of nectin-4 (Acro Biosystems, NE4-H82Ea); purchased Acro Biosystems NE4-H82Ea
T1 sequence (Q96NY8 32-144 limits assumed): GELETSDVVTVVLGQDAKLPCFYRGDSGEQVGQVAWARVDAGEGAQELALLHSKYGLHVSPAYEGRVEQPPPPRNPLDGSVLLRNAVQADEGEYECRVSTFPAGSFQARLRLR
Source text: For direct binding of probe 1a to the N-terminal Ig-like V domain of nectin-4 (Acro Biosystems, NE4-H82Ea), the same procedure as described previously was applied.

[2] = target: T2, recombinant human nectin-4 (Homo sapiens, UniProt Q96NY8); test: Fluorescence anisotropy (FA) direct binding of fluorescent probes; conditions: 1 nM probe
T2 construct: close to the value determined for the complete extracellular domain of nectin-4 (0.94 nM); purchased R&D Systems 2659-N4
T2 sequence (Q96NY8 32-349 limits assumed): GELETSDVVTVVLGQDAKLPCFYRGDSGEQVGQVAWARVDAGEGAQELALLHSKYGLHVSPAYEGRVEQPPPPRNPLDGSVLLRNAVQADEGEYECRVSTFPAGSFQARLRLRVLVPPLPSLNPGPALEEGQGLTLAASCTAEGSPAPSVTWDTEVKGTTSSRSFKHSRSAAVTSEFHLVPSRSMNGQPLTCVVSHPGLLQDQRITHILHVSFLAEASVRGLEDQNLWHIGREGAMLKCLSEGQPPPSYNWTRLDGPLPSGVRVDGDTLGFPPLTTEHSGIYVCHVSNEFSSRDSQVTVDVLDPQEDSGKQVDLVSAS
Source text: For characterizing the binding affinity of the bicyclic peptides toward nectin-4, we envisaged a fluorescence anisotropy-based competitive binding assay. Mudd et al. also used such an assay for the development of the bicycle drug conjugate BT8009. Herein, the peptidic scaffold of BT8009 was used as a basis for the required fluorescent nectin-4-ligand (probe) with either 6-TAMRA (1a) or 6-FAM (1b) being attached at the N-terminal Cys residue. […] In this context, the binding of the probe to nectin-4 was started by the addition of nectin-4, followed by continuous fluorescence measurements over 20 min. It is worth noting that a slight initial increase in the FA values could be observed for both probes (FA values at <300 s in Figure S1); however, this putative time-dependent association appeared to be too fast to analyze it. […]
All measurements were conducted at 37 °C over 1200 s (interval of 37 s) using a Cytation 5 multimode microplate reader (BioTek Instruments, Software Gen 5) and black 96-well microplates (BRANDplates with F-bottom wells). […] The FA (r) was calculated by Gen 5 software from the measured parallel and perpendicular fluorescence intensities (I ∥ and I ⊥, respectively) according to eq using a G factor of 0.87 (preset value). r=I∥−G×I⊥/I∥+2G×I⊥ 1 […]

[3] = type: in vitro ADME; conditions: 24 h
Procedure: Human plasma was collected as previously described. For assessing the stability in human plasma, 10 μL (10 MBq) of the labeling solution of [ ^ 64 Cu]-Cu-1e, [ ^ 64 Cu]-Cu-3a, or [ ^ 64 Cu]-Cu-4 were added to 90 μL of human plasma, and the mixture was incubated at 37 °C for up to 24 h. At distinct time points (1, 2, 4, and 24 h), an aliquot of 20 μL was withdrawn and diluted with 60 μL of a mixture named “Supersol” (composition as described above). This was followed by centrifugation at 16,100g for 2 min. The supernatant was analyzed by radio-HPLC (the same system as used for analyzing the ^64Cu-labelings).

[4] = target: T2, recombinant human nectin-4; test: FA-based competitive binding assay with probe 1a; conditions: for Hill coefficient n: competitive binding curve, variable slope
[5] = Chromatographic hydrophobicity index at immobilized artificial membrane (CHI IAM7.4) by HPLC; type: physicochemical; conditions: nonlabeled peptide, pH 7.4
Procedure: Consequently, the CHI IAM7.4 values indicate that unfavorable pharmacokinetic behavior due to nonspecific binding is not to be expected.
All commercial reagents and solvents were used without further purification, unless otherwise specified. […] The purity of compound 5, which bears selenomethionine, was lower due to the lability to oxidation (as discussed above). The HPLC-based determination of chromatographic hydrophobicity indices at an immobilized artificial membrane was performed as previously described according to the method developed by Valko et al.

HT-1376 cells = test: Saturation binding assay on intact cells; type: cell-based, human; conditions: intact HT-1376 cells, ±SD; for Kd: 60 min, PBS wash, apparent
Procedure: For the saturation binding assay, total and nonspecific binding were determined as described above using 10 different radioligand concentrations ([…]) prepared by serial 1:1 dilution. Plots of “total binding” = f(radioligand) were analyzed by nonlinear regressions using the model of “one site-total, accounting for ligand depletion” as implemented in GraphPad Prism, and Plots of “nonspecific binding” = f(radioligand) were analyzed by linear regressions.

nectin-4 = target: nectin-4; parameters: method as in Duan et al.; conditions: SPR, buffer pH 4.0; ref Duan et al.; read-out: binding affinity; cited from earlier work

| Kd [1] [nM] | dynamic range (ΔFA = mA of bound probe – mA of free probe) [2] | chemical and proteolytic stability in human plasma [3] | Hill coefficient n [4] | CHI IAM7.4 [5] | factor less potent than DOTA conjugate 1f ([4]; FA K d ratio) [fold] | Structure (SMILES) | Kd (HT-1376 cells; ^64Cu-labeled ligand) [nM] | B max (fmol/mg) (HT-1376 cells; ^64Cu-labeled ligand) | Kd (HT-1376 cells; ^68Ga-labeled ligand) [nM] | B max (fmol/mg) (HT-1376 cells; ^68Ga-labeled ligand) | Kd (nectin-4) [nM] |
| --- | --- | --- | --- | --- | --- | --- | --- | --- | --- | --- | --- |
| 1.3 | 100 (±3) mA |  |  |  |  | CSCC[C@@H]1NC(=O)[C@@H]2CSCCC(=O)N3CN(CN(C3)C(=O)CCSC[C@H](NC(=O)c3ccc(C(=O)O)c(-c4c5ccc(=[N+](C)C)cc-5oc5cc(N(C)C)ccc45)c3)C(=O)N3CCC[C@H]3C(=O)N[C@@H](Cc3cccc4ccccc34)C(=O)N[C@H](CC(=O)O)C(=O)N2)C(=O)CCSC[C@@H](C(N)=O)NC(=O)[C@H](Cc2c[nH]c3ccccc23)NC(=O)[C@@H]2C[C@@H](O)CN2C(=O)[C@@H]2CCCN2C(=O)[C@H]([C@@H](C)O)NC(=O)[C@H](CO)NC(=O)[C@H](Cc2c[nH]c3ccccc23)NC(=O)[C@H](CC(=O)O)NC(=O)[C@H](CCCCNC(=N)N)NC1=O [1a] |  |  |  |  |  |
|  |  | No signs of degradation | 1.30 | 20.6 |  | CCCC[C@@H]1NC(=O)[C@@H]2CSCCC(=O)N3CN(CN(C3)C(=O)CCSC[C@H](NC(=O)CC[C@H](C(=O)O)N3CCN(CC(=O)O)CCN(CC(=O)O)CC3)C(=O)N3CCC[C@H]3C(=O)N[C@@H](Cc3cccc4ccccc34)C(=O)N[C@H](CC(=O)O)C(=O)N2)C(=O)CCSC[C@@H](C(N)=O)NC(=O)[C@H](Cc2c[nH]c3ccccc23)NC(=O)[C@@H]2C[C@@H](O)CN2C(=O)[C@@H]2CCCN2C(=O)[C@H]([C@@H](C)O)NC(=O)[C@H](CO)NC(=O)[C@H](Cc2c[nH]c3ccccc23)NC(=O)[C@H](CC(=O)O)NC(=O)[C@H](CCCCNC(=N)N)NC1=O [3a] (X1-CP[1Nal][dD]C[Nle][hArg]DWSTP[Hyp]WC-NH2; linker 1-5-15 via TATA) |  |  |  |  |  |
|  |  | No signs of degradation | 1.52 | 19.9 |  | CSCC[C@@H]1NC(=O)[C@@H]2CSCCC(=O)N3CN(CN(C3)C(=O)CCSC[C@H](NC(=O)CC[C@H](C(=O)O)N3CCN(CC(=O)O)CCN(CC(=O)O)CC3)C(=O)N3CCC[C@H]3C(=O)N[C@@H](Cc3cccc4ccccc34)C(=O)N[C@H](CC(=O)O)C(=O)N2)C(=O)CCSC[C@@H](C(N)=O)NC(=O)[C@H](Cc2c[nH]c3ccccc23)NC(=O)[C@@H]2C[C@@H](O)CN2C(=O)[C@@H]2CCCN2C(=O)[C@H]([C@@H](C)O)NC(=O)[C@H](CO)NC(=O)[C@H](Cc2c[nH]c3ccccc23)NC(=O)[C@H](CC(=O)O)NC(=O)[C@H](CCCCNC(=N)N)NC1=O [1e] | 7.15 | 780 (±23.9) fmol/mg | 8.7 | 1345 (±52.5) fmol/mg |  |
|  |  |  | 2.53 |  | 26 | CSCC[C@@H]1NC(=O)[C@@H]2CSCCC(=O)N3CN(CN(C3)C(=O)CCSC[C@H](NC(=O)CN3CCN(CC(=O)O)CCN(CC(=O)O)CCN(CC(=O)O)CC3)C(=O)N3CCC[C@H]3C(=O)N[C@@H](Cc3ccc4ccccc4c3)C(=O)N[C@H](CC(=O)O)C(=O)N2)C(=O)CCSC[C@@H](C(=O)O)NC(=O)[C@H](Cc2c[nH]c3ccccc23)NC(=O)[C@@H]2C[C@@H](O)CN2C(=O)[C@@H]2CCCN2C(=O)[C@H]([C@@H](C)O)NC(=O)[C@H](CO)NC(=O)[C@H](Cc2c[nH]c3ccccc23)NC(=O)[C@H](CC(=O)O)NC(=O)[C@H](CCCNC(=N)N)NC1=O [8d, reference compound] ({DOTA}-CP[2Nal][dD]CMRDWSTP[Hyp]WC-OH; linker 1-5-15 via TATA) |  |  | 222 | 291 (±77.9) fmol/mg | 23.7 |

| Structure (SMILES) | Kd [1] [nM] | dynamic range (ΔFA = mA of bound probe – mA of free probe) [2] | chemical and proteolytic stability in human plasma [3] | Hill coefficient n [4] | CHI IAM7.4 [5] | factor less potent than DOTA conjugate 1f ([4]; FA K d ratio) [fold] | Kd (HT-1376 cells; ^64Cu-labeled ligand) [nM] | B max (fmol/mg) (HT-1376 cells; ^64Cu-labeled ligand) | Kd (HT-1376 cells; ^68Ga-labeled ligand) [nM] | B max (fmol/mg) (HT-1376 cells; ^68Ga-labeled ligand) | Kd (nectin-4) [nM] |
| --- | --- | --- | --- | --- | --- | --- | --- | --- | --- | --- | --- |
| COCC[C@@H]1NC(=O)[C@@H]2CSCCC(=O)N3CN(CN(C3)C(=O)CCSC[C@H](NC(=O)CC[C@H](C(=O)O)N3CCN(CC(=O)O)CCN(CC(=O)O)CC3)C(=O)N3CCC[C@H]3C(=O)N[C@@H](Cc3cccc4ccccc34)C(=O)N[C@H](CC(=O)O)C(=O)N2)C(=O)CCSC[C@@H](C(N)=O)NC(=O)[C@H](Cc2c[nH]c3ccccc23)NC(=O)[C@@H]2C[C@@H](O)CN2C(=O)[C@@H]2CCCN2C(=O)[C@H]([C@@H](C)O)NC(=O)[C@H](CO)NC(=O)[C@H](Cc2c[nH]c3ccccc23)NC(=O)[C@H](CC(=O)O)NC(=O)[C@H](CCCCNC(=N)N)NC1=O [compound 4] (X1-CP[1Nal][dD]C[hSer](Me)[hArg]DWSTP[Hyp]WC-NH2; linker 1-5-15 via TATA) |  |  | No signs of degradation | 1.72 | 20.2 |  | 6.06 |  | 13.1 |  |  |
